# Data reported in US20130297023A1, “Methods and Devices For Treating Intervertebral Disc Disease” (priority 2012, published 2013).
# Tests used:
# bovine NP cells = assay: Real-time qPCR of LPS- or IL-1-induced catabolic genes and TLR-2 in bovine NP cell monolayers; assay type: cell-based
# Protocol: (§1) Human spine segments (T11/12 to S1) were received within 24 hours of death of donors from the Gift of Hope Organ and Tissue Donor Network (Elmhurst, Ill.), after obtaining consent from the families. Each of the lumbar segments underwent magnetic resonance imaging (MRI). Intact disc specimens (Thompsons grade 2 or 3) were removed and processed aseptically (Thompson et al., 1990; Kim et al., 2009). After dissection of the NP portion of discs either from human or bovine tails, NP cells were released by enzymatic digestion in Dulbecco's modified Eagle's medium [(DMEM)/Ham's F-12 (1:1)] culture medium with sequential treatments of 0.2% pronase and 0.025% collagenase P, as previously described (Kim et al.; Loeser et al., 2003). Alginate beads and monolayers were prepared for long-term (21 days) and short-term studies (1-2 days) as previously described by our group (Kim et al.; Im et al., 2003; Im et al., 2007b; Im et al., 2008; Li et al., 2008a).
# (§2) For short-term monolayer cultures, isolated NP cells from either bovine tails or human spine discs were counted and plated onto 12-well plates at 8×10^5 cells/cm^2 as previously described (Im et al., 2003; Im et al., 2007b). Cells were stimulated with either IL-1 (10 ng/mL, NCI) or LPS (10 μg/mL, Sigma-Aldrich, St. Louis, Mont.) in the presence or absence of MyD88 peptide inhibitor (MyD88i; IMGENEX, San Diego, Calif.) at the concentration of 100 μM, in 1 mL per well of serum-free medium for 24 hours at 37° C. under 5% CO2. Supernatants were collected 24 hours after the initiation of each treatment and subjected to western blotting analyses for secreted matrix-degrading enzyme production. Cells were harvested and prepared for either cell lysates or total RNA extraction followed by real-time qPCR analyses, as previously described (Li et al., 2008b). 18s rRNA was used for normalization.
# (§3) Total RNA was isolated from the cells using Trizol reagent (Invitrogen, Carlsbad, Calif.) following the instructions provided by the manufacturer. Reverse transcription was carried out with 1 μg total RNA using the ThermoScript™ RT-PCR system (Invitrogen, Carlsbad, Calif.) for first strand cDNA synthesis.
# (§4) For real-time qPCR, cDNA was amplified using MyiQ Real-Time qPCR Detection System (Bio-Rad Hercules, Calif.). The synthesized cDNA was subjected to real-time qPCR utilizing the Bio-Rad iQTM SYBR Green supermix (Bio-Rad Hercules, Calif.). A threshold cycle (Ct value) was obtained from each amplification curve using iQ5 Optical System Software provided by the manufacturer (Bio-Rad Hercules, CA). Relative mRNA expression was determined using the ^ΔΔCT and calculated as follows: ^ΔΔCT=^ΔCT (gene of interest)−^ΔCT (endogenous control). Gene quantification was conducted for entire, individual treatment groups and expressed in terms of fold change from untreated control levels. Expression of 18s rRNA was used as the internal control. The deviations in samples represent 3 different donors in 3 separate experiments.
# Therefore, NP cells were treated with MyD88i (100 μM), LPS or IL-1, individually, or combinations of LPS and MyD88i or IL-1 and MyD88i for 24 hours. Resulting cellular responses were then analyzed for alterations in gene expression and/or secreted protein levels. Our data reveal the significant upregulation of collagenase (MMP-13) and aggrecanases (ADAMTS-4, ADAMTS-5) after stimulation with either LPS or IL-1 compared to control (untreated) in bovine NP cells (FIGS. 1A˜C).
# human NP cells [1] = assay: Real-time qPCR and western blotting of LPS- or IL-1-induced MMP-13, MMP-1, ADAMTS-4 and iNOS in human NP cell monolayers; assay type: cell-based; conditions: co-treatment MyD88i 100 μM, 24 hr
# Protocol: as §1, §2, §3, §4
# Cell and tissue lysates were prepared using modified RIPA buffer, as previously described (Li et al., 2008a; Li et al., 2008c). The total protein concentrations of cell lysates were determined by a bicinchoninic acid protein assay (Pierce, Rockford, Ill., USA). An equal amount of protein was resolved by 10% SDS-polyacrylamide gels (SDS-PAGE) and transferred to a nitrocellulose membrane for immunoblot analyses, as described previously (Im et al., 2007b). MMP-13 and MMP-1 antibodies were provided by courtesy of Dr. Gillian Murphy (Cambridge University, UK) Immunoreactivity was visualized using the ECL system (Amersham Biosciences, Piscataway, N.J., USA) and the Signal Visual Enhancer system (Pierce), which magnifies the signal.
# human NP cells [2] = assay: Gelatin zymography of conditioned media from LPS- or IL-1-stimulated human NP cells; assay type: cell-based; conditions: MyD88i 100 μM, 24 hr, p<0.01
# Protocol: as §2, with “Cells were harvested and prepared for either cell lysates or total RNA extraction followed by real-time qPCR analyses, as previously described (Li et al., 2008b). 18s rRNA was used for normalization.” left out
# Gelatin zymography was then performed as previously described (Gupta et al., 2007). […] After development, gel images were captured and the clear bands were analyzed using “ImageJ” image analysis software (www.imagej.nih.gov), and were expressed in arbitrary optical density units. […]
# Because MyD88i effectively suppresses expression and/or production of multiple cartilage degrading enzymes, TLR-2 and stress-associated genes after stimulation with either LPS or IL-1 (FIGS. 1˜4), the role of MyD88i in antagonizing catalytic enzyme activity was further analyzed by performing reverse zymography (FIG. 5). […]
# mouse lumbar spine discs = assay: Ex vivo intradiscal injection organ culture model, Safranin O-fast green histology for PG loss; conditions: intradiscal injection 150 μM per disc, IL-1 100 ng/mL, 6 days organ culture
# Protocol: Lumbar spine segments from deceased mice were dissected under sterile conditions within 12 hrs after sacrifice at the Rush University animal facility for ex vivo organ culture, as previously described (Chiba et al., 1998). The requirement for the pre-treatment of MyD88 has been previously described (Ahmad et al., 2007). Therefore, intradiscal pre-injection of MyD88i ([…]) en bloc was performed using a 30-gauge needle (30 G, 1.50 μL volume). Injected discs were then separated and incubated in DMEM/Ham's F-12 medium supplemented with 1% mini-ITS. After 24 hrs, the MyD88i pre-injected discs were challenged with either IL-1 (100 ng/mL) or LPS (10 μg/mL) and further incubated for 6 days. Harvested discs were fixed in 4% paraformaldehyde and then decalcified in EDTA, which was changed every 5 days. The decalcified discs were paraffin embedded. Serial disc sections of exactly 5-μm thickness were obtained to prepare slides. Safranin O-fast green staining was performed to assess general morphology and the loss of PG in disc ground substance.
# Harvested discs were fixed in 4% paraformaldehyde and decalcified in EDTA, which was changed every 5 days. The decalcified discs were paraffin embedded. Serial disc sections of exactly 5-μm thickness were obtained to prepare slides. […]
# [3] = MyD88i 100 μM, IL-1 10 ng/mL, 24 hr, qPCR, p<0.05
# [4] = MyD88i 100 μM, LPS 10 μg/mL, 24 hr, qPCR, p<0.01
sequence,measurement,setting,value
DRQIKIWFQNRRMKWKKRDVLPGT [MyD88i],"IL-1-induced upregulation of catabolic gene expression (MMP-13, ADAMTS-4, ADAMTS-5)",bovine NP cells; [3],significantly suppresses
same,IL-1-stimulated TLR-2 levels,bovine NP cells; [3],significant decrease
same,"LPS-induced upregulation of catabolic gene expression (MMP-13, ADAMTS-4, ADAMTS-5)",bovine NP cells; [4],significantly suppresses
same,LPS-stimulated TLR-2 levels,bovine NP cells; [4],significant decrease
same,minimal dose demonstrating maximal effects,"bovine NP cells; initial experiments, monolayer cultures, different concentrations of MyD88i",100 µM
same,"IL-1-induced collagenases MMP-13 and MMP-1, mRNA and protein levels","human NP cells [1]; IL-1 10 ng/mL, p<0.05",significant decreases
same,induction of ADAMTS-4 expression by IL-1,"human NP cells [1]; IL-1 10 ng/mL, qPCR, p<0.05",significantly reduced
same,IL-1-induced iNOS gene levels,"human NP cells [1]; IL-1 10 ng/mL, qPCR, p<0.05 vs IL-1 alone",significant suppression
same,"LPS-induced collagenases MMP-13 and MMP-1, mRNA and protein levels","human NP cells [1]; LPS 10 μg/mL, p<0.01",significant decreases
same,induction of ADAMTS-4 expression by LPS,"human NP cells [1]; LPS 10 μg/mL, qPCR, p<0.01",significantly reduced
same,LPS-induced iNOS gene levels,"human NP cells [1]; LPS 10 μg/mL, qPCR, p<0.01 vs LPS alone",significant suppression
same,"IL-1-induced catalytic enzyme activity (gelatin zymography, densitometry)",human NP cells [2]; IL-1 10 ng/mL,markedly suppressed
same,"LPS-induced catalytic enzyme activity (gelatin zymography, densitometry)",human NP cells [2]; LPS 10 μg/mL,markedly suppressed
same,IL-1-induced PG loss in disc organ culture,mouse lumbar spine discs,significantly attenuates
